The assay has as its system highly glycopeptide-resistant enterococci. Conditions: summary of Table III.

On to `CN[C@H](CC(C)C)C(=O)N[C@H]1C(=O)N[C@@H](CC(N)=O)C(=O)N[C@H]2C(=O)N[C@H]3C(=O)N[C@H](C(=O)N[C@H](C(=O)O)c4cc(O)cc(O)c4-c4cc3ccc4O)[C@H](O)c3ccc(c(Cl)c3)Oc3cc2cc(c3O[C@@H]2O[C@H](CO)[C@@H](O)[C@H](O)[C@H]2O[C@H]2C[C@](C)(N)[C@H](O)[C@H](C)O2)Oc2ccc(cc2Cl)[C@H]1O` [vancomycin], for which the “in vitro activity against highly glycopeptide-resistant enterococci (in words)” value is given as “highly resistant”.

Consider Teicoplanin, for which the “in vitro activity against highly glycopeptide-resistant enterococci (in words)” value is reported as “highly resistant”.
